This note sets out measurements from ChEMBL document CHEMBL1795204 (2011).

Activity calls are given as the source filed them. No cut-off for these calls is given here.

The first assay concerns Teladorsagia circumcincta. Kind of assay: Anthelmintic activity against Ostertagia circumcincta. The class given is functional.
Take `CCCOc1ccc2nc(-c3ccc4c(c3)OCO4)cn2n1`: the LD99 was 0.33 µM.

Another assay deals with Haemonchus contortus. Kind of assay: Anthelmintic activity against Haemonchus contortus McMaster by larvel development assay. The format is functional.
`Clc1ccc(-c2cn3nc(OCC4CC4)ccc3n2)c(Cl)c1`: the LD99 result is “inactive”.

In the case of `CCCOc1ccc2nc(-c3ccc4c(c3)OCO4)cn2n1`, the LD99 amounted to 0.77 µM.

Consider `CCCSc1ccc2nc(-c3ccc(OCCOC)c(OC)c3)cn2n1`, for which the LD99 stood at 2.17 µM.

With `COCCOc1ccc(-c2cn3nc(N4CCCC4)ccc3n2)cc1`, the LD99 was found to be 9.6 µM.

Take `CCCOc1ccc2nc(-c3ccc(OCCOC)cc3)c(C#N)n2n1`: the LD99 was found to be 0.11 µM.

For `CCCOc1ccc2nc(-c3ccc(OCCOCC)cc3)cn2n1`, the LD99 was found to be 0.32 µM.

Regarding `CCCSc1ccc2nc(-c3ccc(Cl)cc3Cl)cn2n1`, the LD99 entry was “inactive”.

As to `CCCCSc1ccc2nc(-c3ccc(OCCOCC)cc3)cn2n1`, the LD99 worked out at 0.59 µM.

As for `CCCOc1ccc2nc(-c3ccc4c(c3)OCCO4)cn2n1`, the LD99 came to 2.6 µM.

For the molecule `CCCCSc1ccc2nc(-c3ccc(OCCOC)cc3)cn2n1`, the LD99 came out at 0.26 µM.

With `CCCCSc1ccc2nc(-c3ccc(C(F)(F)F)cc3)cn2n1`, the LD99 result was “inactive”.

Take `CCCSc1ccc2nc(-c3cccc(OC)c3)cn2n1`: the LD99 stood at 2.1 µM.

`CCCOc1nn2cc(-c3ccc(OCCOC)cc3)nc2c2ccccc12` gave an LD99 of 0.91 µM.

With `CCOc1ccc(-c2cn3nc(OCC4CC4)ccc3n2)cc1`, the LD99 is 0.09 µM.

As for `CCCOc1ccc2nc(-c3ccc(OC)c(OC)c3)cn2n1`, the LD99 turned out to be 4.15 µM.

On to `COCCOc1cccc(-c2nc3ccc(OC(C)C)nn3c2C)c1`, for which the LD99 is 14.65 µM.

For `COCCOc1ccc(-c2cn3nc(OC(C)C)ccc3n2)cc1`, the LD99 is 4.96 µM.

With `CCCOc1ccc2nc(-c3ccccc3)cn2n1`, the LD99 result was “inactive”.

With `CCCNc1ccc2nc(-c3ccc(OCCOC)cc3)cn2n1`, the LD99 is 2.11 µM.

Take `CCCOc1ccc2nc(-c3ccc(OCCOC)cc3)c(-c3ccccc3)n2n1`: the LD99 turned out to be 9.29 µM.

Regarding `CCCOc1ccc2nc(-c3ccc(Cl)cc3)cn2n1`, the LD99 stood at 13.03 µM.

Regarding `COCCOc1ccc(-c2cn3nc(OCC4CC4)ccc3n2)cc1`, the LD99 is 0.11 µM.

`CCCCOc1ccc2nc(-c3ccc(OCCOC)cc3)cn2n1` gave an LD99 of 0.64 µM.

`COCCOc1ccc(-c2cn3nc(OCCOC)ccc3n2)cc1`: the LD99 came to 17.47 µM.

Regarding `CCCCc1ccc2nc(-c3ccc(OCCOC)cc3)cn2n1`, the LD99 amounted to 1.92 µM.

Regarding `CCc1ccc(-c2cn3nc(OCC4CC4)ccc3n2)cc1`, the LD99 was found to be 0.27 µM.

Turning to `COCCOc1ccc(-c2nc3ccc(OCC4CC4)nn3c2Br)cc1`, the LD99 amounted to 0.1 µM.

`COCCOc1ccc(-c2cn3nc(OC4CCCC4)ccc3n2)cc1` returned an LD99 of 5.31 µM.

Regarding `CCOCCOc1ccc(-c2cn3nc(SCC(C)C)ccc3n2)cc1`, the LD99 was 0.87 µM.

For `COCCOc1cccc(-c2nc3ccc(SC(C)C)nn3c2C)c1`, the LD99 amounted to 19.58 µM.

For the molecule `CCCOc1ccc2nc(-c3ccc(OCCOC)cc3)c(C)n2n1`, the LD99 came out at 0.32 µM.

For the molecule `COCCOc1ccc(-c2cn3ncccc3n2)cc1`, the LD99 result was “inactive”.

For the molecule `CCCCN(C)c1ccc2nc(-c3ccc(OCCOC)cc3)cn2n1`, the LD99 stood at 2.29 µM.

`CCCOc1nn2cc(-c3ccc(OCC)cc3)nc2cc1C` came in with an LD99 of 0.6 µM.

Turning to `CCOCCOc1ccc(-c2cn3nc(OCC4CC4)ccc3n2)cc1`, the LD99 amounted to 0.11 µM.

Molecule `CCCOc1ccc2nc(-c3ccc(OCCOC)cc3)c(Cl)n2n1` registered an LD99 of 0.06 µM.

Take `COCCOc1ccc(-c2cn3nc(-c4ccccc4)ccc3n2)cc1`: the LD99 is 8.11 µM.

Regarding `COCCOc1ccc(-c2nc3ccc(OCc4ccccc4)nn3c2Cl)cc1`, the LD99 result was “inactive”.

`CCCSc1ccc2nc(-c3ccc(OCCOC)cc3)cn2n1` returned an LD99 of 2.36 µM.

As to `c1ccc([C@H]2CN3CCSC3=N2)cc1` [LEVAMISOLE], the LD99 stood at 0.66 µM.

As for `CCCOc1ccc2nc(-c3ccc(OCCOC)cc3)c(Br)n2n1`, the LD99 was determined as 0.03 µM.

For `CCCSc1ccc2nc(-c3ccc(OCCOC)c(OC)c3)c(Br)n2n1`, the LD99 turned out to be 1.66 µM.

In the case of `CCCOc1ccc2nc(-c3cccc(OC)c3)cn2n1`, the LD99 is 0.81 µM.

As for `CCCOc1ccc2nc(-c3ccc(OCCOC)c(OC)c3)c(C#N)n2n1`, the LD99 entry was “inactive”.

On to `CCCSc1ccc2nc(-c3ccc(OCC)cc3)cn2n1`, for which the LD99 came to 1.21 µM.

As to `CCCOc1ccc2nc(-c3ccc(OCCOC)cc3)c(I)n2n1`, the LD99 was 0.03 µM.

Regarding `CCOc1ccc2nc(-c3ccc(OCCOC)cc3)cn2n1`, the LD99 was 1.3 µM.

As for `CCCOc1ccc2nc(-c3ccc(OCCOC)c(OC)c3)cn2n1`, the LD99 came out at 2.27 µM.

In the case of `CCCOc1ccc2nc(-c3ccc(OCCOC)cc3)cn2n1`, the LD99 is 0.29 µM.

Molecule `COCCOc1ccc(-c2cn3nc(SC(C)C)ccc3n2)cc1` registered an LD99 of 0.59 µM.

For the molecule IVERMECTIN, the LD99 was 0.006 µM.

With `CCCOc1nn2cc(-c3ccc(OCC)cc3)nc2c2ccccc12`, the LD99 came to 1.8 µM.

As to `COCCOc1ccc(-c2cn3nc(-c4ccsc4)ccc3n2)cc1`, the LD99 was 1.96 µM.

`CCCOc1nn2cc(-c3ccc(OCCOC)c(OC)c3)nc2cc1C` registered an LD99 of 0.32 µM.

As for `FC(F)(F)c1ccc(-c2cn3nc(OCC4CC4)ccc3n2)cc1`, the LD99 entry was “inactive”.

For the molecule `CCCOc1ccc2nc(-c3ccc(OCCOC)c(OC)c3)c(I)n2n1`, the LD99 worked out at 10.35 µM.

The molecule `CCCOc1ccc2nc(-c3cccc(OCCOC)c3)c(C)n2n1` gave an LD99 of 5.49 µM.

A further assay concerns Haemonchus contortus. Description: Anthelmintic activity against benzimidazole and Levamisole-resistant Haemonchus contortus Lawes. The class given is functional.
As for `CCCOc1ccc2nc(-c3ccc4c(c3)OCO4)cn2n1`, the LD99 amounted to 0.67 µM.

The next assay concerns Haemonchus contortus. Kind of assay: Anthelmintic activity against Ivermectin-resistant Haemonchus contortus CAVR. The format is functional.
With `CCCOc1ccc2nc(-c3ccc4c(c3)OCO4)cn2n1`, the LD99 was 1.85 µM.

The next assay concerns Trichostrongylus colubriformis. Description: Anthelmintic activity against Trichostrongylus colubriformis McMaster. The format is functional.
As for `CCCOc1ccc2nc(-c3ccc4c(c3)OCO4)cn2n1`, the LD99 was found to be 0.67 µM.

In a further assay the test system is Haemonchus contortus. Description: Anthelmintic activity against benzimidazole-resistant Haemonchus contortus VRSG. The format is functional.
Molecule `CCCOc1ccc2nc(-c3ccc4c(c3)OCO4)cn2n1` gave an LD99 of 0.94 µM.
